Assay results: patent US20250230226A1, “PLXDC1/PLXDC2 ACTIVATORS AND THEIR USE IN THE TREATMENT OF BLOOD VESSEL DISORDERS” (THE REGENTS OF THE UNIVERSITY OF CALIFORNIA, priority 2019, published 2025)

Key:
[1] = test system: LL/2 lung cancer tumor endothelial cells; assay: Lung LL2 ex vivo model of tumor angiogenesis; type: cell-based, mouse; settings: for 48 hrs (morphology observations): LL/2 tumor endothelial cells; for Cell death: drug treatment for two days, ratio of red area to total endothelial cell area; for cytotoxicity at 40 µM / cytotoxicity at 20 µM: Mus musculus, Endothelial cell, 48 h, read-out: Cell death
Outline: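 LL2 mouse tumor fragments (~0.075 mm³) embedded in Matrigel and cultured in endothelial growth medium at 37 °C until endothelial outgrowth (~4 days) before treatment. Cell death assessed e.g. 48 h after drug by fluorescein diacetate (live)/propidium iodide (dead) staining and red/green fluorescence imaging.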

[2] = test system: CT26.CL25 colon cancer tumor endothelial cells; assay: Colon CT26 ex vivo model of tumor angiogenesis; type: cell-based, mouse; settings: for cytotoxicity at 40 µM / cytotoxicity at 10 µM / cytotoxicity at 20 µM: Mus musculus, Endothelial cell, 48 h, read-out: Cell death
Method: An ex vivo tumor angiogenesis model was developed to test the efficacy of anti-cancer candidate agents. The following protocol describes the Ex Vivo Tumor Angiogenesis Model.
• 1. The day before the experiment, all necessary tools were sprayed with 70% ethanol and sterilized under UV light overnight, including blade, dissecting and micro-dissecting scissors and […]. 24-well dishes were placed at 4° C. to pre-chill plates and Matrigel was thawed, 24 hours before tumor dissection. • 2. 70% ethanol was sprayed on working bench. Two sterile petri dishes were prepared with 10 ml sterile PBS. The following steps 3 and 4 are necessary for mouse tumor models. For fresh human tumor, steps 3 and 4 are skipped. • 3. The tumor-bearing mice were euthanized. 70% ethanol was sprayed on the mouse and the tumor was removed using sterilized dissecting tools (avoid the fur). The tumor was rinsed in petri dish with sterile PBS to remove ethanol and fur. The tumor was transferred to a new petri dish with PBS for dissection. The dish is placed on ice. • 4. Pre-chilled sterile pipet tips were used to seed regular Matrigel in 24 well plates on ice. Matrigel (30 μl) was dropped in the middle of each well without touching the edge of the well (avoid introducing bubbles if possible). • 5. The tumor was cut in halves using the sterile blade. Healthy tumor tissue that is not necrotic and is within the tumor capsule was identified and isolated. The healthy tumor tissue was cut into small pieces. For instance, a suitable size for the tumor tissue is 0.5 mm (H)×0.5 mm (L)×0.3 mm (D) with a total volume of 0.075 mm^3. • 6. Each tumor piece was gently transferred and embedded in the Matrigel drop in the 24-well plate. The embedded piece was placed in the bottom and middle of each Matrigel drop. The plate was kept on ice all the time. • 7. After seeding the tumor pieces, plates were incubated in a 37° C. cell culture incubator without medium for 10 minutes in order for the Matrigel to solidify. • 8. Endothelial Growth Medium (0.5 ml) was added to each well and incubated at 37° C. with 5% CO2. Treatment was not added until the new endothelial cells was grown out of the tumor or were larger than 3 mm in diameter. This usually takes 4 days for the LL2 Lewis lung cancer model and 7 days for the CT26 colon cancer model. For human tumor models, the growth time is typically 2-3 weeks, depending on the tumor type. Media was changed every 4 days during prolonged culture. Typically, when the tumor tissue grows to 2 mm in diameter, it was good for drug testing. A size of about 3 mm in diameter can make visualization easier. • 9. When the assay was ready to be analyzed for cell death (e.g., 48 hours after drug addition), the dye mixture was prepared by mixing 6 μl of green dye to stain live cells (5 mg/ml Fluorescein diacetate or FDA in DMSO) with 30 μl of red dye (2.5 mg/ml Propidium iodide or PI in PBS) to stain dead cells in an Eppendorf tube. The FDA dye needs to be stored frozen in a −20° C. freezer because it has a labile ester bond. • 10. 1 μl of the dye mixture was added to each well of the 24-well dish. It is usually preferred to do one 24-well dish at a time given the amount of time needed to take pictures (the green dye is not as stable in the cells in the long term). • 11. The dish was gently rocked a few times to mix the dye with the media in the wells and incubate the dish at 37° C. for 10 min (too long incubation can make the green signal too intense). • 12. Each well was washed with 0.5 ml of sterile PBS and then 0.5 ml of phenol red free SFM was added to each well. Alternatively 0.5 ml of regular Endothelial Cell Growth Media can be added to each well if this well needs to be continuously maintained after the experiment. • 13. An inverted microscope using the 2× objective lens was used to observe morphological changes in the experimental wells. • 14. […]

Compound | Cell death ([1]; 40 μm) [%] | 48 hrs (morphology observations after 48 hours) ([2]; Conc. 40 μm) | cytotoxicity at 40 µM [2] [%] | further results
CCCCOc1ccc(S(=O)(=O)c2cnc3ccc(C(=O)NC(C)C)cc3c2N2CCCN(C)CC2)cc1 [Compound 192] | 60 | 0 | 10 | 48 hrs (morphology observations) ([1]; 40 μm): *** (more than 50% but less than 100% of endothelial cells vesicularize in cell shape)
CCc1ccc(S(=O)(=O)c2cnc3ccc(OC(F)(F)F)cc3c2N(CC)CC)cc1 [Compound 81] | – | 0 | 0 | cytotoxicity at 40 µM [1]: 0%
CCCCN(CCCC)c1c(S(=O)(=O)c2ccc(CC)cc2)cnc2ccc(OC(F)(F)F)cc12 [Compound 87] | – | 0 | 0 | cytotoxicity at 40 µM [1]: 0%
CCCCN(CCCC)c1c(S(=O)(=O)c2ccc(OC)c(OC)c2)cnc2ccc(OC(F)(F)F)cc12 [Compound 74] | 60 | *** (100% of endothelial cells vesicularize in cell shape) | 100 | 48 hrs (morphology observations) ([1]; 40 μm): *** (more than 50% but less than 100% of endothelial cells vesicularize in cell shape)
CCc1ccc(S(=O)(=O)c2cnc3ccc(OC(F)(F)F)cc3c2NN2CCN(C)CC2)cc1 [Compound 50] | 90 | *** (100% of endothelial cells vesicularize in cell shape) | 100 | 48 hrs (morphology observations) ([1]; 40 μm): *** (more than 50% but less than 100% of endothelial cells vesicularize in cell shape)
CCCCOc1ccc(S(=O)(=O)c2cnc3ccc([S+](C)[O-])cc3c2N2CCC(N3CCCN(C)CC3)CC2)cc1 (stereo not shown) [Compound 241] | 40 | – | – | 48 hrs (morphology observations after 48 hours) ([2]; Conc. 10 μm): 0; cytotoxicity at 10 µM [2]: 0%
CCCCOc1ccc(S(=O)(=O)c2cnc3ccc([S+](C)[O-])cc3c2N2CCCN(CCN3CCCC3)CC2)cc1 (stereo not shown) [Compound 210] | 50 | *** (100% of endothelial cells vesicularize in cell shape) | 70 | 48 hrs (morphology observations) ([1]; 40 μm): 0
CCc1ccc(S(=O)(=O)c2cnc3ccc(OC(F)(F)F)cc3c2N2CCC(OCCN(CC)CC)CC2)cc1 [Compound 101] | – | – | – | 48 hrs (morphology observations) ([1]; 20 μm): *** (more than 50% but less than 100% of endothelial cells vesicularize in cell shape); cytotoxicity at 20 µM [1]: 100%; 48 hrs (morphology observations after 48 hours) ([2]; Conc. 20 μm): * (50% or less of cells vesicularize in cell shape); cytotoxicity at 20 µM [2]: 50%
CCCCCCCOc1ccc(S(=O)(=O)c2cnc3ccc([S+](C)[O-])cc3c2N2CCC(N3CCN(C)CC3)CC2)cc1 (stereo not shown) [Compound 253] | – | – | – | 48 hrs (morphology observations) ([1]; 20 μm): **** (100% of endothelial cells vesicularize in cell shape and look flattened in morphology (indicating disintegration of the cell body)); Cell death ([1]; 20 μm): 100%; 48 hrs (morphology observations after 48 hours) ([2]; Conc. 10 μm): *** (100% of endothelial cells vesicularize in cell shape); cytotoxicity at 10 µM [2]: 80%
COc1ccc(S(=O)(=O)c2cnc3ccc(OC(F)(F)F)cc3c2N2CCC(N3CCCCC3)CC2)cc1OC [Compound 56] | 20 | 0 | 30 | 48 hrs (morphology observations) ([1]; 40 μm): * (50% or less of cells vesicularize in cell shape)
CCc1ccc(S(=O)(=O)c2cnc3ccc(C(=O)O)cc3c2N2CCC(N3CCCCC3)CC2)cc1 [Compound 67] | 10 | 0 | 0 | –
CCCCCCCOc1ccc(S(=O)(=O)c2cnc3ccc([S+](C)[O-])cc3c2N2CCC(N3CCCCC3)CC2)cc1 (stereo not shown) [Compound 221] | – | **** (100% of endothelial cells vesicularize in cell shape and look flattened in morphology (indicating disintegration of the cell body)) | 100 | 48 hrs (morphology observations) ([1]; 40 μm): **** (100% of endothelial cells vesicularize in cell shape and look flattened in morphology (indicating disintegration of the cell body)); cytotoxicity at 40 µM [1]: 100%
CCCCOc1ccc(S(=O)(=O)c2cnc3ccc(SC)cc3c2N2CCCN(CCN3CCCCC3)CC2)cc1 [Compound 206] | – | **** (100% of endothelial cells vesicularize in cell shape and look flattened in morphology (indicating disintegration of the cell body)) | 100 | 48 hrs (morphology observations) ([1]; 20 μm): 0; Cell death ([1]; 20 μm): 30%
CCc1ccc(S(=O)(=O)c2cnc3ccc(OC(F)(F)F)cc3c2-n2cnc(C)c2)cc1 [Compound 117] | – | – | – | 48 hrs (morphology observations) ([1]; 20 μm): *** (more than 50% but less than 100% of endothelial cells vesicularize in cell shape); cytotoxicity at 20 µM [1]: 100%; 48 hrs (morphology observations after 48 hours) ([2]; Conc. 20 μm): *** (100% of endothelial cells vesicularize in cell shape); cytotoxicity at 20 µM [2]: 100%
COc1ccc(S(=O)(=O)c2cnc3ccc(OC(F)(F)F)cc3c2-n2cncn2)cc1 [Compound 86] | – | – | – | 48 hrs (morphology observations) ([1]; 20 μm): *** (more than 50% but less than 100% of endothelial cells vesicularize in cell shape); cytotoxicity at 20 µM [1]: 100%; 48 hrs (morphology observations after 48 hours) ([2]; Conc. 10 μm): *** (100% of endothelial cells vesicularize in cell shape); cytotoxicity at 10 µM [2]: 100%
CCc1ccc(S(=O)(=O)c2cnc3ccc(OC(F)(F)F)cc3c2N2CCC(CO)CC2)cc1 [Compound 48] | 60 | 0 | 10 | –
COc1ccc(S(=O)(=O)c2cnc3ccc(OC(F)(F)F)cc3c2N2CCCC(O)C2)cc1OC (stereo not shown) [Compound 70] | 40 | 0 | 10 | 48 hrs (morphology observations) ([1]; 40 μm): *** (more than 50% but less than 100% of endothelial cells vesicularize in cell shape)
CCc1ccc(S(=O)(=O)c2cnc3ccc(OC(F)(F)F)cc3c2N2CCC(O)(c3ccc4c(c3)OCO4)CC2)cc1 [Compound 147] | – | 0 | 0 | –
CCOC(=O)c1ccc2ncc(S(=O)(=O)c3ccc(OC)cc3)c(N3CCCN(CCN(CC)CC)CC3)c2c1 [Compound 139] | – | 0 | 40 | –
CCOC(=O)c1ccc2ncc(S(=O)(=O)c3ccc(OC)cc3)c(N3CCC(N4CCC(O)CC4)CC3)c2c1 [Compound 138] | – | 0 | 20 | –
CN1CCCN(c2c(S(=O)(=O)c3ccc([N+](=O)[O-])cc3)cnc3ccc(OC(F)(F)F)cc23)CC1 [Compound 60] | – | 0 | 5 | –
CCCCOc1ccc(S(=O)(=O)c2cnc3ccc(SC)cc3c2N2CCCN(CCN3CCCC3)CC2)cc1 [Compound 207] | – | **** (100% of endothelial cells vesicularize in cell shape and look flattened in morphology (indicating disintegration of the cell body)) | 100 | –
CCc1ccc(S(=O)(=O)c2cnc3ccc(OC(F)(F)F)cc3c2N2CCC(O)(c3cccc(OC)c3)CC2)cc1 [Compound 150] | – | 0 | 10 | –
CCOC(=O)c1ccc2ncc(S(=O)(=O)c3ccc(CC)cc3)c(N3CCC(O)(c4cccc(OC)c4)CC3)c2c1 [Compound 149] | – | * (50% or less of cells vesicularize in cell shape) | 20 | –
CCCCOc1ccc2ncc(S(=O)(=O)c3ccc(OC)c(OC)c3)c(N(CC)CC)c2c1 [Compound 123] | – | 0 | 20 | –
